Entries after “also recorded” stand apart in the source; their conditions may differ.
What was measured:
[1] = system: Beclin1; settings: starved EGFP-LC3 MCF-7 cells, 1 μM
[2] = target: wild type FKBP (Homo sapiens, UniProt P62942); settings: cited from earlier work
[3] = target: FKBP(F36V) (Homo sapiens, UniProt P62942, F37V); settings: cited from earlier work
[4] = target: Citrine-eDHFR-PM and Cherry-FKBP WT (Escherichia coli, UniProt P0ABQ4); experiment: Translocation to plasma membrane and FLIM in MCF-7 cells, FKBP WT; assay type: cell-based; settings: 2 μM, 2 h

Question: With `CCC(C(=O)N1CCCCC1C(=O)O[C@H](CCc1ccc(OC)c(OC)c1)c1cccc(OCC(=O)NCCCOCCOCCOCCCNC(=O)COc2c(OC)cc(Cc3cnc(N)nc3N)cc2OC)c1)c1cc(OC)c(OC)c(OC)c1` (some centres unmarked) [SLF′-TMP] as the compound, how does the “autophagy (LC3 puncta) on Beclin1 knock off / knock on” value [1] read?
Answer: Inhibition of autophagy

Question: Which “autophagy (LC3 puncta) on Beclin1 knock off / knock on” value [1] does the source give for `COc1cc(Cc2cnc(N)nc2N)cc(OC)c1OC` [TMP, 5-(3,4,5-trimethoxybenzyl)pyrimidine-2,4-diamine] here?
Answer: Recovery of autophagy

Question: With `CCC(C)(C)C(=O)C(=O)N1CCCC[C@H]1C(=O)O[C@H](CCc1ccc(OC)c(OC)c1)c1cccc(OCC(=O)O)c1` [SLF] as the compound, how does the Kd ([2]; read-out: Kd for endogenous FKBP) read?
Answer: 10 to 20 nM

Question: What about the “affinity to FKBP(F36V)” value ([3]; in words) of the same compound?
Answer: low affinity

Question: With `CCC(C)(C)C(=O)C(=O)N1CCCCC1C(=O)O[C@H](CCc1ccc(OC)c(OC)c1)c1cccc(NC(=O)CCC(=O)NCCCOCCOCCOCCCNC(=O)COc2c(OC)cc(Cc3cnc(N)nc3N)cc2OC)c1` (some centres unmarked) [SLF-TMP] as the compound, how does the “translocation of cognate binding domain FKBP WT to the plasma membrane” value [4] read?
Answer: cannot induce translocation

Question: With `CCC(C(=O)N1CCCCC1C(=O)O[C@H](CCc1ccc(OC)c(OC)c1)c1cccc(OCC(=O)O)c1)c1cc(OC)c(OC)c(OC)c1` (some centres unmarked) [SLF′] as the compound, how does the “binding to naturally occurring (unmutated) FKBP” value ([2]; in words) read?
Answer: does not bind at all; also recorded: very low affinity

Question: And the “fold lower affinity for wild type FKBP than for mutant FKBP(F36V)” value ([2]; wild type versus F36V)?
Answer: > 1000 fold

Question: And the Kd ([3]; read-out: Kd for binding domain of FKBP(F36V))?
Answer: 0.094 nM

Reference: patent US20150168420A1, “BIOORTHOGONAL CHEMICAL INDUCERS OF REVERSIBLE DIMERIZATION FOR CONTROL OF PROTEIN FUNCTION IN CELLS” (MAX-PLANCK-GESELLSCHAFT ZUR FÖRDERUNG DER WISSENSCHAFTEN …, priority 2012, published 2015)
